The results in this text go back to patent US12559750B2, “Methods and compositions for treatment of polycystic kidney disease” (Regulus Therapeutics Inc., priority 2021, dated 2026).

e = 2'-O-(2-methoxyethyl) (MOE); k = constrained ethyl (cEt); d = 2'-deoxy (DNA); m = 2'-O-methyl; f = 2'-fluoro Bounds are passed on as bounds.

One series deals with Pcy/DBA mice. Description: Efficacy in Pcy/DBA mouse model of PKD, alone and with tolvaptan.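 Further: dosing began at 6 weeks of age, with endpoints collected 7 days after the last dose and PBS-injected wild-type DBA/2J mice as the normal reference.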 It counts as in vivo. The note with it: 0.3% Tolvaptan in chow alone (vehicle SC).
The test system of series [1] is miR-17. The series can be described thus: miR-17 luciferase sensor assay in HeLa cells. It counts as cell-based. Here is the method: The in vitro potency of certain compounds was evaluated using a miR-17 luciferase sensor assay which uses a luciferase reporter vector for miR-17, with two fully complementary miR-17 binding sites in tandem in the 3′-UTR of the luciferase gene. HeLa cells were co-transfected with the luciferase reporter vector and an exogenous miR-17-expression vector that acted to repress the luciferase signal.

The test system of the next series is AMPA-R. The series can be described thus: [3H]AMPA radioligand binding assay on rat brain synaptic membranes.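 On all read-outs here: competition binding in which test compounds at rising concentrations displace [3H]AMPA from AMPA-R on rat brain synaptic membranes, with reduced bound radioligand as read-out.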 The note with it: for % Inhibition @ Concentration 100 uM: Table 8 (3′-terminal nucleobase/sugar variants); for % Inhibition @ Concentration 0.1 uM: Table 8, 0.1 uM; for % Inhibition @ Concentration 1 uM: Table 8, 1 uM; for % Inhibition @ Concentration 10 uM: Table 8, 10 uM.

Series [2] has as its system KspCre/Pkd1F/RC (Pkd1-F/RC) mice. Description: Efficacy in Pkd1-F/RC mouse model of ADPKD. To be noted: 20 mg/kg SC on days 8, 10, 12, 15 of age. The format is in vivo.
Description: Mice were sacrificed at 18 days of age, and kidney weight, body weight, cyst index, serum creatinine level, and blood urea nitrogen (BUN) level were measured. BUN level is a marker of kidney function. A higher BUN level correlates with poorer kidney function, thus a reduction in BUN level is an indicator of reduced kidney injury and damage and improved function. Statistical significance was calculated by one-way ANOVA with Dunnett's multiple correction.
In another series the target is T1, AMPA-R (GluA1/GluA4) (Homo sapiens, UniProt P42261+P48058).
T1 construct: host or cells: ChanTest GluA1/GluA4 EZCells
T1 sequence (P42261 19-906): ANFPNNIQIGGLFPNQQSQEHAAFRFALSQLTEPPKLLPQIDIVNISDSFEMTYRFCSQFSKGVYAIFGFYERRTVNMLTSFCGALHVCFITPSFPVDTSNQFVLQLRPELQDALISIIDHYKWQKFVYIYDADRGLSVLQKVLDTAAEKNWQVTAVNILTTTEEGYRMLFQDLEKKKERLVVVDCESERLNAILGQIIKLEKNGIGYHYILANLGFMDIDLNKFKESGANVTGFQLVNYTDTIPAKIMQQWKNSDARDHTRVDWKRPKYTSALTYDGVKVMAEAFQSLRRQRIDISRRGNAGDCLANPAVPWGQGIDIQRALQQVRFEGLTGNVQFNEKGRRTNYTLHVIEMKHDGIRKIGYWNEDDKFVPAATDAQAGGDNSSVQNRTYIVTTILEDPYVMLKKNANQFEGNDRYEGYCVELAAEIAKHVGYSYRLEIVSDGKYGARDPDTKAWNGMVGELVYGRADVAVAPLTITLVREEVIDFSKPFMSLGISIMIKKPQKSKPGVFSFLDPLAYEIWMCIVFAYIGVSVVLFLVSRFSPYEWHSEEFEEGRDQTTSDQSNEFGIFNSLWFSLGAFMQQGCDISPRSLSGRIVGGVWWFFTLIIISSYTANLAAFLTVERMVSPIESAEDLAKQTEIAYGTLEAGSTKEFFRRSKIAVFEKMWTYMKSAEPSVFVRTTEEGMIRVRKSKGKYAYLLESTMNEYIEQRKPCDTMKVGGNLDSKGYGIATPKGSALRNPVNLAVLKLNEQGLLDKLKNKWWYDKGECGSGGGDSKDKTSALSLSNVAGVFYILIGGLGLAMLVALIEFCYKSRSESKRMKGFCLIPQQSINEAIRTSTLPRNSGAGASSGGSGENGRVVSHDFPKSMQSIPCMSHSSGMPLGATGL
T1 sequence (P48058 21-902): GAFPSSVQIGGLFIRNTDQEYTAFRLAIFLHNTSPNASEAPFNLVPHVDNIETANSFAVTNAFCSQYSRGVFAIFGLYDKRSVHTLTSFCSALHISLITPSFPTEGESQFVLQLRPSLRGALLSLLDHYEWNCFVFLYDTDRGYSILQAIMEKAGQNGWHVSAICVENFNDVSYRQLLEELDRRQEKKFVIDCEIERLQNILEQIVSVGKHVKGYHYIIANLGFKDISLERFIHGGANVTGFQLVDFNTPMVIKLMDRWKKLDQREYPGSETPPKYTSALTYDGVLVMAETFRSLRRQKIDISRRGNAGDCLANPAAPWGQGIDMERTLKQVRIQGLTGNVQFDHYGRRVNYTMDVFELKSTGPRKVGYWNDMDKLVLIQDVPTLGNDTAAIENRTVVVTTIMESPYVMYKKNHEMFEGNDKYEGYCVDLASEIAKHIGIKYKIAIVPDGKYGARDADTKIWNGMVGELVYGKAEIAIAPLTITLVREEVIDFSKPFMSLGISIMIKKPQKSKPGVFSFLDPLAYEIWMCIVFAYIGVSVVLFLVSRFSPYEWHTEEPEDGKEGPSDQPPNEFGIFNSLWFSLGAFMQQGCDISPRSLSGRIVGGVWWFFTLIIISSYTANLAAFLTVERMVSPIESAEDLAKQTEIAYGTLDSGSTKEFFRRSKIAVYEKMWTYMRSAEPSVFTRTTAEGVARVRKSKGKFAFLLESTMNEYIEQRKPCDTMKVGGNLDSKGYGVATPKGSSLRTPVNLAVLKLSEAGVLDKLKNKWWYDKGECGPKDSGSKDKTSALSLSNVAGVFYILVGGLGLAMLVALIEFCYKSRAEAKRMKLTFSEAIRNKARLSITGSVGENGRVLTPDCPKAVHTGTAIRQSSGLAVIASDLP
Description: Manual whole-cell patch clamp, ChanTest GluA1/GluA4 EZCells. It counts as cell-based. Here is the method: To evaluate functional antagonism of anti-miR-17 oligonucleotides towards the AMPA-R, certain oligonucleotides were tested using the manual whole-cell patch clamp technique, which records membrane currents as a measure of AMPA-R activity.
Manual whole-cell patch clamp studies were performed by Metrion Biosciences (Cambridge, UK). Whole-cell voltage clamp experiments were performed at room temperature (18-21° C.) using an EPC10 patch clamp amplifier using Patchmaster software (HEKA Elektronik). Glass patch pipettes were fabricated from borosilicate glass capillaries (Harvard Apparatus) to resistances between 1.4 and 2.5 MΩ. Membrane currents were recorded using the whole-cell patch clamp technique. ChanTest® GluA1/GluA4 EZCells were clamped at a holding potential of −80 mV and membrane currents elicited by 10 μM(S)-AMPA delivered using a VC38 perfusion system (ALA Scientific Instruments). The […] current amplitude values were measured with each application of 10 μM(S)-AMPA. The fractional change of current amplitude produced by each concentration of compound was calculated relative to the control current (pre-compound) and expressed as percentage change (% inhibition) for each cell. RGLS4326 was tested in a separate study from all other compounds in Table 6.
(In general: Patch clamp records ionic current or voltage across a cell membrane.)

In series [3] the test system is miR-17. Description: miR-17 PD-Sig in mouse kidney cell lines. The format is cell-based. The note with it: D52B5, mouse, PKD. Here is the method: The activity of certain compounds was evaluated using a mouse miR-17 Pharmacodynamic-Signature (miR-17 PD-Sig), which consists of the expression of 18 unique miR-17 target genes normalized by six reference housekeeping genes, to provide an unbiased and comprehensive assessment of miR-17 activity. The mouse miR-17 PD-Sig score was the calculated average of the 18 genes' individual log 2 fold changes (normalized by six housekeeping genes) compared to mock transfection (Lee et al., Nat. Commun., 2019, 10, 4148).
The PD-Sig for RGLS4326 in mIMCD3 cells (77.2, indicated by “*”) was not generated in this experiment; the value in Table 14 is that reported by Lee et al., Nat. Commun., 2019, 10, 4148. Blank cells in the table indicate that a compound was not tested in a particular cell line.

Series [4] relates to miR-17. Description: microRNA polysome shift assay (miPSA) in kidney of wild type mice. It counts as in vivo, mouse. To be noted: single dose 30 mg/kg, seven days later. Here is the method:
In vivo potency was evaluated using the microRNA polysome shift assay (miPSA). This assay was used to determine the extent to which compounds directly engage the miR-17 target in the kidney in normal and PKD mice. The miPSA relies on the principle that active miRNAs bind to their mRNA targets in translationally active high molecular weight (HMW) polysomes, whereas the inhibited miRNAs reside in the low MW (LMW) polysomes. Treatment with anti-miR results in a shift of the microRNA from HMW polysomes to LMW polysomes. Thus, the miPSA provides a direct measurement of microRNA target engagement by a complementary anti-miR (Androsavich et al., Nucleic Acids Research, 2015, 44: e13).
Wild type mice were administered a single dose of 0.3 mg/kg, 3 mg/kg, or 30 mg/kg. Kidney tissue was collected seven days later and subjected to the miPSA. The mean displacement score for each treatment is shown in Table 15 (PBS, n=17; RGLS4326 30 mg/kg, n=10; all other treatments, n=4-5). The tested oligonucleotides displaced miR-17 from translationally active polysome (as measured by miPSA) in normal mouse kidneys.

Description for Pcy/DBA mice: The efficacy of RG-NG-1015 was also evaluated in the Pcy/DBA mouse model of PKD alone and in combination with tolvaptan.
As outlined in FIGS. 6A and 6B, five groups of male Pcy/DBA mice (n=13 per treatment group) were treated subcutaneously with PBS or RG-NG-1015 at 25, 5, 1, or 0.2 mg/kg once every two weeks (Q2W). Two groups of male Pcy/DBA mice (n=13 per group) were also treated with RG-NG-1015 at 50 mg/kg once every four weeks (Q4W) or at 12.5 mg/kg once weekly (QW). Another four groups of male Pcy/DBA mice (n=13 per group) were treated subcutaneously with PBS or RG-NG-1015 at 25, 5, or 1 mg/kg Q2W in combination with tolvaptan at 0.3% (w/w chow) ad libitum. A group of male WT-BDA/2J mice received subcutaneous injections of PBS Q2W was included in the study as a normal range reference. Mice were randomized into treatment groups at 5 weeks of age, and treatment started at 6 weeks of age for 17 weeks and were sacrificed 7 days after the final treatment. Kidney weight, body weight, kidney cyst index, urine Ngal-to-Creatinine ratio (Ngal/Cr) were measured.

In the case of `Cc1ccccc1C(=O)Nc1ccc(C(=O)N2CCCC(O)c3cc(Cl)ccc32)c(C)c1` (stereo not drawn) [Tolvaptan, tolvaptan, reference compound], in the series with Pcy/DBA mice, the “Mean Cystic Area” value was determined as 44.68%, the “Mean Cystic Area % Inhibition” value is 29.2%, the Mean KW/BW is 59.3 mg/g and the “Mean KW/BW % Inhibition” value is reported as 44.9%. In addition, in the series with Pcy/DBA mice, the “Mean Urine Ngal/Cr” value stood at 8.73 mg/mg and the “Mean Urine Ngal/Cr % Inhibition” value came out at 62.1%.
As a reminder, the EC50 is the concentration giving half of the maximal effect. A high value points to a need for much substance. The term IC50 denotes the concentration that inhibits the measured activity by half. A higher IC50 goes with weaker potency. “GSCEAECETEGSTEADASGSCMAFCFUFUMUSGS (GCACTGTAAGCACUUUG; sugars from the 5' end keeeekedkkmfffmkk, backbone and methylation of C not given here) [RG-NG-1032]”: the “Log2FC (37.5 nM)” value in the series on miR-17 [1] is 3.85. The EC50 with miR-17 [1] (HeLa cells, 18- to 24-hour transfection) was less than 0.001 µM. Besides, the 50% inhibitory concentration (IC50) in the series on AMPA-R (Table 8) was determined as 1.17 µM. Besides, in the series on AMPA-R, the “% Inhibition @ Concentration 100 uM” value is listed as 92%, the “% Inhibition @ Concentration 0.1 uM” value stood at 24.3%, the “% Inhibition @ Concentration 1 uM” value is recorded as 43.8% and the “% Inhibition @ Concentration 10 uM” value is on record as 78.3%.
For “ASCSAMAFUFGFCMASCS [RG5124, reference compound]”, the “BW/KW Ratio, Mean Difference vs. PBS” value in series [2] turned out to be 26.14. Moreover, the “Serum BUN, Mean Difference vs. PBS” value in series [2] is reported as “+8.138”. Besides, in series [2], the “Serum Creatine, Mean Difference vs. PBS” value is listed as “+0.07838”. In series [2] (sacrificed at 18 days), the “Mean BW/KW Ratio” value amounted to 91.75. Moreover, in series [2] (sacrificed at 18 days), the “Mean Serum BUN” value was 50.61. Also, in series [2] (sacrificed at 18 days), the “Mean Serum Creatine” value is listed as 0.2403. Besides, the “% Inhibition on membrane currents evoked with 10 uM (s)-AMPA (Mean ± SD)” value at AMPA-R (GluA1/GluA4) (0.3 uM compound) amounted to 14.1 ± 7.2%; on AMPA-R (GluA1/GluA4) (3 uM compound), 42.1 ± 9.4%. Besides, the EC50 with miR-17 [3] is 0.507 µM. Besides, the “miPSA Displacement Score, Mean” value in the series with miR-17 [4] turned out to be 0.5935. In addition, in the series with miR-17 [1], the “Log2FC (37.5 nM)” value came to 0.40. Also, the IC50 is greater than 100 µM on AMPA-R (Experiment #1), greater than 100 µM at AMPA-R (Experiment #2), greater than 100 µM at AMPA-R (Experiment #3) and no less than 100 µM at AMPA-R (Table 8). The “% Inhibition @ 0.1 uM” value is 0.4% in the series on AMPA-R (Experiment #1, 0.1 uM); −1.2% with AMPA-R (Experiment #2, 0.1 uM); 5.1% in the series with AMPA-R (Experiment #3, 0.1 uM). Further, the “% Inhibition @ 1 uM” value in the series with AMPA-R (Experiment #1, 1 uM) turned out to be 12.9%; in the series with AMPA-R (Experiment #2, 1 uM) it was 1.6%; in the series on AMPA-R (Experiment #3, 1 uM), 9.3%. Besides, the “% Inhibition @ 10 uM” value in the series on AMPA-R (Experiment #1, 10 uM) is given as −3.7%; in the series with AMPA-R (Experiment #2, 10 uM), −4.2%; with AMPA-R (Experiment #3, 10 uM) it was 16.1%. The “% Inhibition @ 100 uM” value in the series on AMPA-R (Experiment #1, 100 uM) is −5.1%; in the series on AMPA-R (Experiment #2, 100 uM), 7.2%; in the series on AMPA-R (Experiment #3, 100 uM), 23%. Also, the “% Inhibition @ Concentration 100 uM” value in the series on AMPA-R was 10.1%. For the same compound, the “% Inhibition @ Concentration 0.1 uM” value in the series with AMPA-R is −8.6%. The “% Inhibition @ Concentration 1 uM” value in the series with AMPA-R is listed as −0.6%. Moreover, the “% Inhibition @ Concentration 10 uM” value in the series with AMPA-R is 4.4%.
Consider ASGSCMALCFUFUMUSCS [RG-NG-1026], for which the IC50 at AMPA-R (Experiment #2) is greater than 100 µM. Moreover, the “% Inhibition @ 0.1 uM” value in the series with AMPA-R (Experiment #2, 0.1 uM) is recorded as −3.3%. In the series with AMPA-R (Experiment #2, 1 uM), the “% Inhibition @ 1 uM” value is given as −1.1%. Moreover, the “% Inhibition @ 10 uM” value in the series on AMPA-R (Experiment #2, 10 uM) was −3.5%. The “% Inhibition @ 100 uM” value in the series with AMPA-R (Experiment #2, 100 uM) came to 2.3%.
“TEAFASGSCMAFCFUFUMUSCS (TAAGCACUUUC; 2'-MOE, S-cEt, 2'-F, 2'-OMe modifications; modified_base 1 OTHER; thymine; misc_feature 1..11 Synthetic: RG-NG-1022; modified_base 1..2 OTHER; 2'-O-methoxyethyl nucleoside; modified_base 3..4 OTHER; S-constrained ethyl nucleoside; modified_base 5 OTHER; 2'-O-methyl nucleoside; modified_base 6..8 OTHER; 2'-fluoro nucleoside; modified_base 9 OTHER; modified_base 10..11 OTHER)”: the IC50 with AMPA-R (Experiment #3) is greater than 100 µM. Also, in the series with AMPA-R (Experiment #3, 0.1 uM), the “% Inhibition @ 0.1 uM” value was −23.5%. The “% Inhibition @ 1 uM” value in the series with AMPA-R (Experiment #3, 1 uM) is on record as −5.4%. Also, in the series with AMPA-R (Experiment #3, 10 uM), the “% Inhibition @ 10 uM” value is −7%. The “% Inhibition @ 100 uM” value in the series with AMPA-R (Experiment #3, 100 uM) is on record as −10.9%.
AEGECMAFCFUFUMTEGE [RG-NG-1009] yielded an IC50 at AMPA-R (Experiment #2) greater than 100 µM. Besides, in the series with AMPA-R (Experiment #2, 0.1 uM), the “% Inhibition @ 0.1 uM” value was −11.8%. Also, the “% Inhibition @ 1 uM” value with AMPA-R (Experiment #2, 1 uM) was 2.7%. Besides, the “% Inhibition @ 10 uM” value in the series on AMPA-R (Experiment #2, 10 uM) amounted to 13%. In addition, the “% Inhibition @ 100 uM” value in the series on AMPA-R (Experiment #2, 100 uM) is 32.6%.
For ASGECMAFCFUFUMTEGS [RG-NG-1008], the IC50 at AMPA-R (Experiment #2) was determined as 56.6 µM. Further, in the series with AMPA-R (Experiment #2, 0.1 uM), the “% Inhibition @ 0.1 uM” value is recorded as −22.4%. Also, the “% Inhibition @ 1 uM” value in the series on AMPA-R (Experiment #2, 1 uM) is reported as 13.6%. Also, the “% Inhibition @ 10 uM” value with AMPA-R (Experiment #2, 10 uM) is recorded as 22.1%. Further, the “% Inhibition @ 100 uM” value in the series with AMPA-R (Experiment #2, 100 uM) was determined as 59.6%.
Consider “AECETEGSTEAASGSCMAFCFUFUMUSCS (ACTGTAAGCACUUUC; S-cEt, 2'-MOE, 2'-F, 2'-OMe modifications; modified_base 3 OTHER; thymine; modified_base 5 OTHER; misc_feature 1..15 Synthetic: RG-NG-1018; modified_base 1..3 OTHER; 2'-O-methoxyethyl nucleoside; modified_base 4 OTHER; S-constrained ethyl nucleoside; modified_base 7..8 OTHER; modified_base 9 OTHER; 2'-O-methyl nucleoside; modified_base 10..12 OTHE)”, for which the IC50 in the series with AMPA-R (Experiment #3) is greater than 100 µM. For the same compound, in the series with AMPA-R (Experiment #3, 0.1 uM), the “% Inhibition @ 0.1 uM” value stood at 3%. The “% Inhibition @ 1 uM” value in the series with AMPA-R (Experiment #3, 1 uM) came to 8.1%. The “% Inhibition @ 10 uM” value in the series with AMPA-R (Experiment #3, 10 uM) came out at 1%. Besides, the “% Inhibition @ 100 uM” value in the series on AMPA-R (Experiment #3, 100 uM) is reported as 12.3%.
